How the values were obtained:
[1] = molecular target: T1, Human neutrophil elastase (HNE, EC 3.4.21.37) (Homo sapiens, UniProt P08246); test: Human neutrophil elastase inhibition, spectrophotometric, MeOSuc-AAPV-pNA substrate; assay type: biochemical; details: for Ki: Dixon plots, read-out: Ki (inhibition constant); for Type of Inhibition: Lineweaver-Burk and Dixon plots, reversibility from activity vs enzyme concentration plots; for IC50: concentration that caused 50% enzyme activity loss, three sets of experiments
T1 construct: purchased Sigma-Aldrich
T1 sequence (P08246 30-267): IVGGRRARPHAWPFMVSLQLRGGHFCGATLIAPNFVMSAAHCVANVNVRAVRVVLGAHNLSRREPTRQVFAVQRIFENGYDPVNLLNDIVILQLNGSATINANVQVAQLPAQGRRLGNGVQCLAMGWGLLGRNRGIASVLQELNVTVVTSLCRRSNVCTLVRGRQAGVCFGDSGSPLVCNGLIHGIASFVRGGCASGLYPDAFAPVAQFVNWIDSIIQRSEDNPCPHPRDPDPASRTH
Procedure: Human neutrophil elastase (EC 3. 4. 21. 37) (Sigma-Aldrich, St. Louis, MO, USA) activity was measured in accordance with the previous description with subtle modification, by observing the formation of p-nitroaniline after the hydrolysis of N-methoxysuccinyl-Ala-Ala-Pro-Val-p-nitro anilide at 405 nm. The inhibitors were dissolved in dimethyl sulfoxide (DMSO) and diluted to a few concentrations. In brief, in a 96-well plate, 10 µL of inhibitor solution and 40 µL of 1.5 mM of MeOSuc-AAPV-pNA were added as a substrate in the 0.02 mM Tris-HCl buffer solutions (pH 8.0). Then, 20 µL of human neutrophil elastase (0.2 unit/mL) was added to the mixture. The test mixtures were incubated and mixed for 15 min at room temperature and then screened at 405 nm for 30 min every 30 s.
Activity (%) = 100 [1/(1 + ([I]/IC50))].(1)
The modalities of HNE inhibition were estimated in experiments using particular concentrations of the substrates and inhibitors, respectively. The Michaelis–Menten constant (Km) and maximal velocity (Vmax) were investigated by a Lineweaver–Burk plot. The KI, dissociation constants for inhibitor binding to the free enzyme were calculated using a Dixon plot. Equations (2)–(4) are representatives for deriving the aforementioned parameters. (2) 1/V=Km/Vmax(1+[I]/Ki)×1/S+1/Vmax (3) Slop=Km/KiVmax[I]+Km/Vmax (4) Intercept=1/KiVmax[I]+1/Vmax.

[2] = test system: IL-1β in LPS-stimulated RAW264.7 cells; test: IL-1β concentration by ELISA; assay type: cell-based, mouse; details: 1 or 3 µg/mL 2 h prior to LPS 1 µg/mL for 16 h; n = 6, p < 0.05
Procedure: RAW264.7 cell (2 × 10^5 cells/well) were cultured in a 6-well plate for 24 h and treated with compounds (1 or 3 µg/mL) 2 h prior to LPS treatment, followed by LPS (1 µg/mL) for 16 h. The concentration of pro-inflammatory cytokines in the collected supernatant was quantified using an ELISA kit (R&D system, Minneapolis, MN, USA) according to the manufacturer’s instructions. Briefly, 50 μL of assay diluent, sample, and standards were added to the ELISA well plate, which were pre-coated with anti-mouse IL-1β and TNF-α antibody. The plates were then covered with adhesive strip, agitated, and incubated for 2 h at room temperature. The ELISA well-plate was washed five times with a wash buffer, then 100 μL of mouse IL-1β and TNF-α conjugates was added and incubated at room temperature for 2 h. The plate was washed five times, 100 μL of substrate solution was added to each well, and incubated for 30 min in the dark. The reaction was quenched by the addition of 100 μL stop solution to each well, and the absorbance was read 450 nm/570 nm with an ELISA reader (Molecular Devices, Sunnyvale, CA, USA).

[3] = test system: NF-κB p65 in LPS-stimulated RAW264.7 cells; test: NF-κB nuclear translocation, immunocytochemistry; assay type: cell-based, mouse; details: pre-treatment 2 h prior to LPS 1 µg/mL for 16 h
Procedure: RAW264.7 cells cultured on round cover slips coated with poly-L-lysine were treated with triterpenoids (1 or 3 µg/mL) 2 h prior to LPS treatment, followed by LPS (1 µg/mL) for 16 h. The cells were washed with 1 x phosphate buffered saline (PBS) and fixed with 4% paraformaldehyde for 30 min. After washing the fixed cells with PBS, the cells were permeabilized with a blocking buffer (1% normal goat serum and 0.2% Triton X-100 in PBS) for 30 min at room temperature, and were incubated with an anti-NF-κB p65 antibody (1:200 dilution, Cell Signaling Technology, Danvers, MA, USA) at 4 °C overnight. After three washes in PBS, the cells were incubated in the dark for 1 h with the mixture of FITC-conjugated anti-rabbit IgG fluorescent secondary antibody diluted at 1:500 in PBS. Finally, the cells were stained with 2 µg/mL Hoechst for nuclei staining. The cells were washed with PBS, wet-mounted on glass slides, and observed using a confocal laser-scanning microscope (Olympus, Tokyo, Japan). The negative control (NC) was analyzed by omitting the primary antibody.

[4] = test system: LPS-stimulated RAW264.7 cells; test: LPS-induced morphological changes (macrophage activation); assay type: cell-based, mouse; details: pre-treatment 1 or 3 µg/mL
Procedure: The mouse macrophage cell line RAW264.7 was obtained from the American Type Culture Collection (ATCC, Manassas, VA, USA). The cells were cultured in DMEM supplemented with 10% fetal bovine serum (FBS), penicillin (100 U/mL), and streptomycin (100 μg/mL) at 37 °C with 5% CO2. The medium was replaced every 2 days. After treatment with chemicals, the cell morphological changes were observed under a microscope and images are captured before cell viability assay.

[5] = test system: TNF-α mRNA in LPS-stimulated RAW264.7 cells; test: TNF-α mRNA expression by RT-PCR; assay type: cell-based, mouse; details: 1 or 3 µg/mL, n = 6, p < 0.05
Procedure: (§1) Total RNA was isolated from cultured RAW264.7 cells using TRIzol reagent (Ambion®, Carlsbad, CA, USA) according to the manufacturer’s instructions. First strand cDNA was synthesized from the total RNA (3 μg) using oligo dT (DiaStar RT Kit, SolGent, Daejeon, Korea) and was used as a template for PCR amplification with G-Taq polymerase (Cosmogenetech, Seoul, Korea). The first-strand cDNA was quantified using a spectrophotometer (NanoDrop® ND-1000, NanoDrop Technologies, Wilmington, […], USA). The quantified cDNA was used as a template. PCR assay was performed with specific primers for inducible nitric oxide (iNOS), IL-1β, and TNF-α. The PCR steps included initial denaturation at 94 °C for 5 min, then 28 cycles at 94 °C for 30 s, 57 °C for 30 s, and 72 °C for 30 s, and a final extension step at 72 °C for 10 min. The amplified PCR products were separated in 1.5% agarose gel, and the gel was stained with ethidium bromide. The bands were visualized using the iBright^TM CL1500 imaging system (Thermo Scientific Fisher/Life Technologies Holdings Pte Ltd., Singapore). The DNA fragments were directly sequenced with the ABI PRISM® 3100-Avant Genetic Analyzer (Applied Biosystems, Carlsbad, CA, USA).

[6] = test system: IL-1β mRNA in LPS-stimulated RAW264.7 cells; test: IL-1β mRNA expression by RT-PCR; assay type: cell-based, mouse; details: 1 or 3 µg/mL, n = 6, p < 0.05
Procedure: as §1

| SMILES | Ki [1] [µM] | Type of Inhibition [1] | IC50 [1] [µM] | LPS-upregulated IL-1β concentration [2] | NF-κB translocation to the nucleus (immunocytochemical staining) [3] | effect on LPS-induced morphological changes [4] | LPS-upregulated TNF-α mRNA level [5] | LPS-upregulated IL-1β mRNA level [6] |
| --- | --- | --- | --- | --- | --- | --- | --- | --- |
| CC(C)=CCC/C(C)=C/C[C@@H](O)/C(C)=C/CC[C@@]1(C)[C@H](CCCO)/C(=C(/C)C=O)CC[C@]1(C)O [Compound 1, isoiridogermanal] | 12.7 | noncompetitive inhibition | 14.4 ± 0.3 | noticeably decreased | suppressed | ameliorated | noticeably decreased | noticeably decreased |
| CC(C)=CCCC(C)=CCC(O)C(C)=CCCC1(C)C(CCCO)C(=C(C)C=O)CCC1(C)O (stereo not shown) [Compound 2, iridobelamal A] | 24.9 | noncompetitive inhibition | 27 ± 0.6 | noticeably decreased | suppressed | ameliorated | noticeably decreased | noticeably decreased |

Reference: PMC8588536, “Iridal-Type Triterpenoids Displaying Human Neutrophil Elastase Inhibition and Anti-Inflammatory Effects from Belamcanda chinensis” (Molecules, 2021)
